Columns and labels:
[1] = tested on: Chymotrypsin-like activity (β5/β5i); assay: Proteasome inhibitory activity, subunit-specific cell lysate IC50, chymotrypsin-like activity; format: biochemical
X/β5 = molecular target: T1, X/β5 (Homo sapiens, UniProt P20618+P28074); assay: Proteasome activity assay, purified 20S proteasome, Ac-WLA-AMC; format: biochemical
T1 construct: purchased R&D Systems
Method: Purified 20S human proteasomes (CP and IP, R&D Systems) were used to assess the in vitro inhibition of proteasome catalytic activity by LMP2 inhibitors. In our 96-well format assays involving a 100 μL total volume, 20S proteasomes (0.5 μg/mL) were incubated with inhibitors or reference compounds (e.g., carfilzomib) in assay buffer (20 mM Tris-HCl, 0.5 mM EDTA, 0.035% SDS) at room temperature for 30 min. Reactions were initiated by the addition of fluorogenic substrates containing the AMC (7-amino-4-methylcoumarin) group. Specifically, the following substrates were used: Suc-LLVY-AMC (CT-L activity, 100 μM), Ac-PAL-AMC (LMP2, 100 μM), Ac-WLA-AMC (β5, 20 μM), Ac-nLPnLD-AMC (β1,100 μM), Ac-RLR-AMC (β2/2i, 20 μM), and Ac-ANW-AMC (β5i, 100 μM). The fluorescence of liberated AMC was measured over a period of 90 min at 360 and 460 nm on a SpectraMax M5 fluorescence plate reader (Molecular Devices). For the proteasome activity of brain tissues isolated from AD mice, tissues were homogenized in RIPA buffer (50 mM Tris Cl, pH 7.4, 150 mM NaCl, 5 mM EDTA, 1% Nonidet P-40, 1% sodium deoxycholate, 0.1% SDS, 1% aprotinin, 50 mM NaF) and sonicated. Samples were centrifuged for 40 min at 14,000×g (4° C.). Protein concentration was determined using the Bradford Assay according to the manufacturer's protocol. […] Fluorescence was recorded for 90 min using a Synergy-HT (Bio Tek) plate reader.

LMP7/β5i = molecular target: T2, LMP7/β5i (Homo sapiens, UniProt P20618+P28062); assay: Proteasome activity assay, purified 20S proteasome, Ac-ANW-AMC; format: biochemical
T2 construct: purchased R&D Systems
Method: (§1) Purified 20S human proteasomes (CP and IP, R&D Systems) were used to assess the in vitro inhibition of proteasome catalytic activity by LMP2 inhibitors. […] Reactions were initiated by the addition of fluorogenic substrates containing the AMC (7-amino-4-methylcoumarin) group. Specifically, the following substrates were used: Suc-LLVY-AMC (CT-L activity, 100 μM), Ac-PAL-AMC (LMP2, 100 μM), Ac-WLA-AMC (β5, 20 μM), Ac-nLPnLD-AMC (β1,100 μM), Ac-RLR-AMC (β2/2i, 20 μM), and Ac-ANW-AMC (β5i, 100 μM). The fluorescence of liberated AMC was measured over a period of 90 min at 360 and 460 nm on a SpectraMax M5 fluorescence plate reader (Molecular Devices). For the proteasome activity of brain tissues isolated from AD mice, tissues were homogenized in RIPA buffer (50 mM Tris Cl, pH 7.4, 150 mM NaCl, 5 mM EDTA, 1% Nonidet P-40, 1% sodium deoxycholate, 0.1% SDS, 1% aprotinin, 50 mM NaF) and sonicated. Samples were centrifuged for 40 min at 14,000×g (4° C.). Protein concentration was determined using the Bradford Assay according to the manufacturer's protocol. Finally, samples were loaded onto a 96-well plate followed by the addition of the substrate (Ac-PAL-AMC) at 37° C. Fluorescence was recorded for 90 min using a Synergy-HT (Bio Tek) plate reader.

[2] = tested on: APPsw transgenic mouse (Tg2576) and LPS-induced mice (ICR strain); assay: Morris water maze test in AD mouse models; format: in vivo; conditions: FIG. 12A-12D
Method: These two compounds were used to investigate the impacts of LMP2 inhibition on cognitive deficits in two animal models of human Alzheimer's disease (AD). In these AD models, AD develops by Aβ deposition (APPsw transgenic mouse) or lipopolysaccharide (LPS)-induced neuroinflammation. For the APPsw transgenic model, also known as Tg2576, 10-month old APPsw mice were treated i.p. with LMP2 inhibitors twice a week for 3 weeks. […] Once treatments were finished, Morris water maze test was performed. All mice were trained for three times a day for 5 days before the test. The escape latency and distance traveled were recorded on a daily-basis over a 5-day period. […] This supports that the efficacy of LMP2 inhibitors is mediated through LMP2 inhibition. One day after the completion of Morris water maze test, the ability of mouse to maintain memory was evaluated by probe trials. […] Sequentially, a step-through latency test was performed a day after the probe trial. […]
The learning trials were conducted over 5 days, with 4 trials per day, with three randomized starting points. […] Swimming pattern of each mouse was monitored and recorded by a camera mounted above the center of the pool, and the escape latency, escape distance and swimming speed were assessed by the SMART-LD program (Panlab, Spain). […]

LMP2/β1i [3] = molecular target: T3, LMP2/β1i (Homo sapiens, UniProt P28065+P40306); assay: Proteasome activity assay, purified 20S proteasome, Ac-PAL-AMC; format: biochemical; set-up: purchased R&D Systems
Method: as §1

LMP2/β1i [4] = molecular target: T3, LMP2/β1i; assay: Proteasome inhibitory activity, subunit-specific cell lysate IC50, LMP2; format: biochemical; set-up: Subunit-Specific Cell lysate IC50 (μM); endogenous in cells; conditions: read-out: Subunit-Specific Cell lysate IC50, LMP2 (β1i)

Question: With `CC(C)C[C@H](NC(=O)[C@H](Cc1ccccc1)NC(=O)[C@@H]1CCCN1C(=O)CNC(=O)c1cnccn1)C(=O)[C@@]1(C)CO1` [Analogue 16] as the compound, how does the IC50 [1] read?
Answer: Its IC50 is greater than 10000 nM.

Question: And the IC50 (X/β5)?
Answer: The IC50 was greater than 10000 nM.

Question: What about the IC50 (LMP7/β5i) of the same compound?
Answer: Its IC50 is greater than 10000 nM.

Question: What about the “cognitive deficits in the APPsw mice” value [2] of the same compound?
Answer: The value was “ameliorates cognitive deficits”.

Question: And the IC50 (LMP2/β1i [3])?
Answer: Its IC50 is 70 nM.

Question: What about the IC50 (LMP2/β1i [4]) of the same compound?
Answer: The IC50 was 80 nM.

From patent publication US20190161516A1, “PROTEASOME INHIBITORS” (University of Kentucky Research Foundation, priority 2017, published 2019)
